Results taken from patent US20230107216A1, “PANTETHEINE DERIVATIVES AND USES THEREOF” (Comet Therapeutics, Inc., priority 2018, published 2023).
Like-named read-outs stand apart in the source and are kept apart here.

Columns and labels:
[1] = test system: monocyte-derived M1 macrophages; test: M1 differentiation assay (macrophage TNFα, IL6, IL10 ELISA, FACS); format: cell-based, human; conditions: Homo sapiens, Macrophage, 10 uM
How it was run: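 CD14+ human blood monocytes (100,000) differentiated 6 days with 10 ng/ml GM-CSF plus compound at 10 or 50 μM, refreshed days 2 and 4. Matured 24 h with GM-CSF, IFNγ, LPS plus compound. Supernatant TNFα, IL6, IL10 by ELISA; FACS M1 phenotype CD86+CD68+CD163−.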

[2] = Treg differentiation assay; format: cell-based; conditions: human
Method: Naïve CD4+ T cells (Stemcell, 17555) were isolated from PBMC and placed (20,000 cells/well) in 10 μg/ml anti-CD3 antibody (eBioscience, 16-0037-85) pre-coated 96-well flat bottom plate (Eppendorf, Cat #30730119) for 3 hours at 37° C. in an X-VIVO15 medium (Lonza, 04-418Q) supplemented with 15% FBS (Hyclone SV30087.03) and 1% Penicillin-Streptomycin (Hyclone, SV30010). Treg induction cocktail was added including 2 μg/ml anti-CD28 (eBioscience 16-0289-85), 20 ng/ml IL-2 (R&D, 202-IL-050) 0.2 ng/ml TGF-β1 (Peprotech, 100-21-50) in the presence of the compounds at 10 and 50 μM dose. On day 3 half of the medium, was refreshed with Treg differentiation cocktail as above and compounds (10 and 50 μM). On day 5 cells were collected and the following staining were performed: live/dead (Invitrogen, L34963), and Foxp3/Transcription Factor Staining Buffer Set (EBioscience, 00-5523-00), mouse anti-human FoxP3 (BD, 560046) or mouse IgG1, κIsotype control (BD, 555749) and analyzed by FACS (BD LSR Fortessa, 853492).

[3] = test system: primary fibroblasts (healthy controls and PA, MMA, BCKDK, PDH, VLCAD, LS, PC, GA, VLCFA, KSS, FXN, HD); test: Measurement of ROS (H2DCFDA) in primary fibroblasts; format: cell-based, human; conditions: Homo sapiens, Fibroblast, BCKD GM00649, procedure Example 812, Assay Condition C
How it was run: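 Patient and healthy-control primary fibroblasts switched to supplemented DMEM 24 h before assay, then treated with compound (10 μM) plus H2DCFDA (22 μM) for 2 h (PA, MMA lines) or 24 h (other lines). Kinetic fluorescence at 492/527 nm over 60 min; only live cells analysed.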

[4] = test system: HepG2 cells; test: MitoBiogenesis In-Cell ELISA (COX-I, SDH-A); format: cell-based; conditions: Homo sapiens, 168 h, 10 uM, 7 days, read-out: % increase in Mitochondrial Biogenesis
Text: We determined the effect of compounds of the present disclosure on the levels of two mitochondrial proteins using MitoBiogenesis™ In-Cell ELISA Kit (Abcam ab110216) according to manufacturer's instructions. The two proteins are each subunits of a different oxidative phosphorylation enzyme complex, one protein being subunit I of Complex IV (COX-1), which is mitochondrial (mt)DNA-encoded, and the other being the 70 kDa subunit of Complex II (SDH-A), which is nuclear (n)DNA-encoded. Complex IV includes several proteins which are encoded in the mitochondrion, while the proteins of Complex II are entirely encoded in the nucleus. HepG2 cells (ATCC, HB-8065) were cultured (5% CO2 at 37° C.) and plated in Poly-D-Lysine 384-Well plate (Corning, 356663) at a density of 40,000 cells/mL in 50 μL. Culture and assay media consisted of DMEM (Gibco, 11995-065) supplemented with 1% Penicillin-Streptomycin and 10% FBS (Hyclone, SV30087.03). Cells were allowed to settle for 30 min at room temperature and further incubated overnight (37° C. and 5% CO2) for adherence. Next day, 50-5 μM of the negative control Chloramphenicol (Selleck, S1677), test compounds (50-10 μM) and vehicle DMSO (0.2%) were added at the recommended volumes to the 384-well plate for 7 days without media change using a Tecan compound dispenser. All the solutions and wash buffers were prepared and dispensed according to manufacturer's volumes for a 384-well plate format. Effects of compounds on mtDNA-encoded protein expression (COX-I) and nuclear DNA-encoded mitochondrial protein expression (SDH-A) were expressed as relative signal (nm) to vehicle of a n=2 per conditions.

[5] = Deuterated and endogenous Coenzyme A in tissues after single and multiple dosing to vitamin B5-deprived mice (LC-MS/MS); format: in vivo, C57BL/6N mice
Method: Example 22: Determining Deuterated and Endogenous Coenzyme A in Various Tissues after Single and Multiple Dosing of Compound 1216 to Vitamin B5-Deprived Male C57BL/6N Mice
C57BL6/J male mice were placed on a Vitamin B5 deprived diet for 2 weeks prior to the start of dosing with Compound 1216, single or multiple dosing with either IV or oral administration. […]
The test item and vehicle were administered to the appropriate animals via intravenous (slow bolus) injection to the tail vein (Groups 1-5). In Group 6 test item was administered via oral gavage. The dose volume for each animal was based on the most recent body weight measurement. The animals were temporarily restrained for dose administration and were not sedated. The dose was given using a disposable needle and syringe (intravenous administration) or a stainless steel tube (oral gavage). The dosing formulations were stirred continuously during dose administration, when possible.
Tissue samples were directly removed after sacrifice, together with plasma and CSF and immediately snap frozen in liquid nitrogen and stored at −80° C. […].
Ultrapure water (UPW) was added to the tissue in a 3:1 ratio (e.g. 1 gr tissue+3 ml UPR) and homogenized for 2 minutes at 30/s with 3 beads using a bead mill. Samples were placed on ice and 200 mg weighed in a 2 ml PP tube. 20 μL 50 mM TCEP was added to the sample and vortexed and placed on ice water for 30 minutes. Subsequently 100 μL Perchloric acid was added and the samples was again vortexed and centrifuged for 5 min at 13000 ref (4° C.). Then 225 μL of the supernatant was transferred to a 1.5 mL PP tube. Then 50 μL 3M KOH was added, vortexed and incubated for 2h on ice water. Then 50 μL 3M HCl was added and again vortexed and centrifuged for 5 min at 13000 rcf (4° C.). 100 μL of the supernatant was transferred to a 1.5 mL PP tube, 150 μL UPW was added, and the samples was again vortexed. Then 200 μL of the supernatant was transferred to a 96-wells plate and the samples were ready for measurement. […]

Q: With `C/C=C/C(=O)SCCNC(=O)CCNC(=O)[C@H](O)C(C)(C)CO` [Compound 35, (R)—S-(2-(3-(2,4-dihydroxy-3,3-dimethylbutanamido)propanamido)ethyl) (E)-but-2-enethioate] as the compound, how does the activation at 10 µM ([1]; read-out: % Increase in IL-10 Secretion) read?
A: ≥ 30%

Q: And the inhibition at 10 µM ([1]; read-out: % decrease in Macrophage IL-6 Secretion)?
A: ≥ 30%

Q: And the inhibition at 10 µM ([1]; read-out: % decrease in Macrophage TNFα Secretion)?
A: ≥ 30%

Q: What about the percent decrease in viable Treg cells at 5 days, 50 µM [2] of the same compound?
A: ≥ 30%

Q: And the inhibition at 10 µM ([3]; read-out: Decreased ROS by at least 10%)?
A: ≥ 10%

Q: And the inhibition at 10 µM ([3]; read-out: Decreased ROS by at least 30%)?
A: ≥ 30%

Q: And the activation at 10 µM [4]?
A: > 5%

Q: Which results are given for `[2H]C([2H])([2H])C(COP(=O)(O)O)(C(O)C(=O)NCCC(=O)NCCSC(C)=O)C([2H])([2H])[2H]` (stereo not shown) [Compound 1216, S-acetyl-4′-phosphopantetheine-D6]?
A: Levels of labeled CoA in liver and kidney ([5]; multiple IV doses): high levels of labeled CoA; Presence of deuterated (labelled) CoA in three brain regions and other organs over time ([5]; multiple IV doses, up to 24 hours after last dose): prolonged presence of deuterated (labelled) CoA; Deuterated (labelled) CoA in cerebellum, cerebrum, remainder of the brain, liver, heart and kidney ([5]; multiple doses (either 3 or 5, IV and oral) of 102.8 mg/kg every 12 hours, vitamin B5-deprived mice, 15 minutes after last dose): results in deuterated (labelled) CoA
